Columns and labels:
[1] = human, in vivo
[2] = Effect of food on pharmacokinetics in healthy subjects; format: in vivo, human; details: high-fat and high-calorie meal
[3] = system: metastatic or surgically unresectable urothelial cancer harboring select FGFR genetic alterations; assay: Phase 2 study NCT02365597: progression-free survival (Kaplan-Meier), investigator assessment; format: in vivo, human
Protocol: The term “progression-free survival” is defined as the time from first dose to date of documented evidence of disease progression or death, whichever comes first.
(§1) Patients were contacted every 12 weeks for survival assessment.
(§2) The study was designed to enroll 180 patients with specified FGFR alterations. Of these, ≥88 were required in the selected regimen. […] Responses were assessed by investigators and an independent radiological review committee. Progression-free survival and overall survival were estimated using Kaplan-Meier product limit method. Data from patients who were progression free and alive or with unknown status were censored at last tumor assessment. Efficacy end points were analysed at primary analysis cut-off.

serum phosphate = assay: Pharmacodynamics: serum phosphate; format: in vivo, human; details: consequence of FGFR inhibition
From the text: To manage phosphate elevation, phosphate binders were permitted. Avoid concomitant use with agents that can alter serum phosphate levels before the initial dose increase period based on serum phosphate levels.

[4] = system: metastatic or surgically unresectable urothelial cancer harboring select FGFR genetic alterations; assay: Phase 2 study NCT02365597: overall survival (Kaplan-Meier); format: in vivo, human; details: FGFR fusions (excluding mutations); 6 mg QD
Protocol: The term “overall survival” is defined as the time from first dose to the date of death. Data for patients who are alive or have unknown status is censored at the last date on which the patient is known to be alive.
as §1, §2

[5] = FGFR fusions (excluding mutations), 6 mg QD
[6] = FGFR fusions (excluding mutations), 8 mg QD
[7] = FGFR fusions (excluding mutations), 10 mg 7 on/7 off
[8] = FGFR fusions (excluding mutations), Total
[9] = FGFR mutations (excluding fusions), 6 mg QD
[10] = FGFR mutations (excluding fusions), 8 mg QD
[11] = FGFR mutations (excluding fusions), 10 mg 7 on/7 off
[12] = FGFR mutations (excluding fusions), Total
[13] = FGFR mutations and fusions, 6 mg QD
[14] = FGFR mutations and fusions, 10 mg 7 on/7 off
[15] = FGFR mutations and fusions, Total

Question: Which “circulating metabolites in plasma” value [1] does the source give for `COc1cc(OC)cc(N(CCNC(C)C)c2ccc3ncc(-c4cnn(C)c4)nc3c2)c1` [erdafitinib, N-(3,5-dimethoxy-phenyl)-N′-(1-methylethyl)-N-[3-(1-methyl-1H-pyrazol-4-yl)quinoxalin-6-yl]ethane-1,2-diamine] here?
Answer: The value was “no circulating metabolites”.

Question: And the “exposure (Cmax and AUC) versus dose” value [1]?
Answer: Its value is “increased proportionally”.

Question: And the “mean total apparent clearance (CL/F)” value [1]?
Answer: Its value is 0.362 L/h.

Question: What about the “pharmacokinetics in specific populations” value [1] of the same molecule?
Answer: The value was “No clinically meaningful trends”.

Question: What about the “time to steady state” value [1] of the same molecule?
Answer: The value was 2 weeks.

Question: What about the “effect of food on pharmacokinetics” value [2] of the same molecule?
Answer: The value was “No clinically meaningful differences”.

Question: What about the “6-month progression-free survival rate (95% CI)” value [3, 5] of the same molecule?
Answer: Its value is 0.40 (0.12, 0.67).

Question: What about the “12-month progression-free survival rate (95% CI)” value [3, 5] of the same molecule?
Answer: The value was 0.20 (0.03, 0.47).

Question: What about the “18-month progression-free survival rate (95% CI)” value [3, 5] of the same molecule?
Answer: The value was 0.10 (0.01, 0.36).

Question: And the “Progression-free survival, Median (95% CI)” value [3, 5]?
Answer: Its value is 5.54 (0.46, 11.10) months.

Question: What about the “Progression-free survival, Q1” value [3, 5] of the same molecule?
Answer: Its value is 4.50 months.

Question: What about the “6-month progression-free survival rate (95% CI)” value [3, 6] of the same molecule?
Answer: Its value is 0.25 (0.10, 0.44).

Question: What about the “12-month progression-free survival rate (95% CI)” value [3, 6] of the same molecule?
Answer: The value was 0.15 (0.04, 0.33).

Question: What about the “18-month progression-free survival rate (95% CI)” value [3, 6] of the same molecule?
Answer: Its value is 0 (NE, NE).

Question: And the “Progression-free survival, Median (95% CI)” value [3, 6]?
Answer: Its value is 2.76 (1.51, 5.45) months.

Question: What about the “Progression-free survival, Q1” value [3, 6] of the same molecule?
Answer: The value was 1.35 months.

Question: And the “Progression-free survival, Q3” value [3, 6]?
Answer: Its value is 6.64 months.

Question: And the “6-month progression-free survival rate (95% CI)” value [3, 7]?
Answer: Its value is 0 (NE, NE).

Question: What about the “12-month progression-free survival rate (95% CI)” value [3, 7] of the same molecule?
Answer: The value was 0 (NE, NE).

Question: What about the “18-month progression-free survival rate (95% CI)” value [3, 7] of the same molecule?
Answer: The value was 0 (NE, NE).

Question: What about the “Progression-free survival, Median (95% CI)” value [3, 7] of the same molecule?
Answer: The value was 2.09 (1.41, 2.76) months.

Question: And the “Progression-free survival, Q1” value [3, 7]?
Answer: The value was 1.41 months.

Question: And the “Progression-free survival, Q3” value [3, 7]?
Answer: The value was 2.76 months.

Question: And the “6-month progression-free survival rate (95% CI)” value [3, 8]?
Answer: The value was 0.28 (0.15, 0.44).

Question: And the “12-month progression-free survival rate (95% CI)” value [3, 8]?
Answer: The value was 0.15 (0.05, 0.29).

Question: What about the “18-month progression-free survival rate (95% CI)” value [3, 8] of the same molecule?
Answer: The value was 0.05 (0.00, 0.19).

Question: And the “Progression-free survival, Median (95% CI)” value [3, 8]?
Answer: The value was 4.27 (2.56, 5.52) months.

Question: What about the “Progression-free survival, Q1” value [3, 8] of the same molecule?
Answer: Its value is 1.51 months.

Question: And the “Progression-free survival, Q3” value [3, 8]?
Answer: The value was 7.00 months.

Question: And the “6-month progression-free survival rate (95% CI)” value [3, 9]?
Answer: The value was 0.22 (0.12, 0.33).

Question: And the “12-month progression-free survival rate (95% CI)” value [3, 9]?
Answer: The value was 0.07 (0.02, 0.16).

Question: What about the “18-month progression-free survival rate (95% CI)” value [3, 9] of the same molecule?
Answer: The value was 0.05 (0.01, 0.14).

Question: What about the “Progression-free survival, Median (95% CI)” value [3, 9] of the same molecule?
Answer: The value was 5.09 (2.83, 5.42) months.

Question: And the “Progression-free survival, Q1” value [3, 9]?
Answer: Its value is 1.77 months.

Question: What about the “Progression-free survival, Q3” value [3, 9] of the same molecule?
Answer: Its value is 5.55 months.

Question: What about the “6-month progression-free survival rate (95% CI)” value [3, 10] of the same molecule?
Answer: Its value is 0.41 (0.29, 0.53).

Question: And the “12-month progression-free survival rate (95% CI)” value [3, 10]?
Answer: Its value is 0.15 (0.06, 0.27).

Question: What about the “Progression-free survival, Median (95% CI)” value [3, 10] of the same molecule?
Answer: The value was 5.55 (4.83, 7.26) months.

Question: What about the “Progression-free survival, Q1” value [3, 10] of the same molecule?
Answer: Its value is 2.83 months.

Question: And the “Progression-free survival, Q3” value [3, 10]?
Answer: The value was 8.44 months.

Question: What about the “6-month progression-free survival rate (95% CI)” value [3, 11] of the same molecule?
Answer: Its value is 0.25 (0.10, 0.43).

Question: And the “12-month progression-free survival rate (95% CI)” value [3, 11]?
Answer: Its value is 0.17 (0.05, 0.34).

Question: And the “18-month progression-free survival rate (95% CI)” value [3, 11]?
Answer: The value was 0.08 (0.01, 0.23).

Question: What about the “Progression-free survival, Median (95% CI)” value [3, 11] of the same molecule?
Answer: The value was 4.93 (2.73, 5.55) months.

Question: And the “Progression-free survival, Q1” value [3, 11]?
Answer: Its value is 2.69 months.

Question: What about the “Progression-free survival, Q3” value [3, 11] of the same molecule?
Answer: The value was 7.06 months.

Question: What about the “6-month progression-free survival rate (95% CI)” value [3, 12] of the same molecule?
Answer: Its value is 0.31 (0.24, 0.39).

Question: What about the “12-month progression-free survival rate (95% CI)” value [3, 12] of the same molecule?
Answer: Its value is 0.12 (0.07, 0.19).

Question: And the “18-month progression-free survival rate (95% CI)” value [3, 12]?
Answer: The value was 0.06 (0.03, 0.12).

Question: What about the “Progression-free survival, Median (95% CI)” value [3, 12] of the same molecule?
Answer: Its value is 5.36 (4.21, 5.52) months.

Question: And the “Progression-free survival, Q1” value [3, 12]?
Answer: Its value is 2.73 months.

Question: What about the “Progression-free survival, Q3” value [3, 12] of the same molecule?
Answer: Its value is 8.25 months.

Question: And the “6-month progression-free survival rate (95% CI)” value [3, 13]?
Answer: The value was 0.50 (0.06, 0.84).

Question: And the “12-month progression-free survival rate (95% CI)” value [3, 13]?
Answer: The value was 0.50 (0.06, 0.84).

Question: What about the “Progression-free survival, Median (95% CI)” value [3, 13] of the same molecule?
Answer: Its value is 9.10 (0.39, NE) months.

Question: What about the “Progression-free survival, Q1” value [3, 13] of the same molecule?
Answer: Its value is 2.97, NE months.

Question: And the “6-month progression-free survival rate (95% CI)” value [3, 14]?
Answer: Its value is 0 (NE, NE).

Question: And the “12-month progression-free survival rate (95% CI)” value [3, 14]?
Answer: Its value is 0 (NE, NE).

Question: What about the “18-month progression-free survival rate (95% CI)” value [3, 14] of the same molecule?
Answer: Its value is 0 (NE, NE).

Question: What about the “Progression-free survival, Median (95% CI)” value [3, 14] of the same molecule?
Answer: Its value is 5.45 (1.45, 5.52) months.

Question: What about the “Progression-free survival, Q1” value [3, 14] of the same molecule?
Answer: Its value is 1.45 months.

Question: And the “Progression-free survival, Q3” value [3, 14]?
Answer: Its value is 5.52 months.

Question: What about the “6-month progression-free survival rate (95% CI)” value [3, 15] of the same molecule?
Answer: Its value is 0.29 (0.04, 0.61).

Question: And the “12-month progression-free survival rate (95% CI)” value [3, 15]?
Answer: The value was 0.29 (0.04, 0.61).

Question: What about the “Progression-free survival, Median (95% CI)” value [3, 15] of the same molecule?
Answer: The value was 5.52 (0.39, 12.65) months.

Question: What about the “Progression-free survival, Q1” value [3, 15] of the same molecule?
Answer: The value was 1.45 months.

Question: What about the “Progression-free survival, Q3” value [3, 15] of the same molecule?
Answer: Its value is 12.65 months.

Question: What about the “Median (95% CI) progression-free survival per investigator assessment” value ([3]; Regimen 1, 10 mg intermittent) of the same molecule?
Answer: The value was 4.8 (2.7 to 5.5) months.

Question: What about the “Progression-free survival rate at 12 months” value ([3]; Regimen 1, 10 mg intermittent) of the same molecule?
Answer: The value was 18%.

Question: And the “Median (95% CI) progression-free survival per investigator assessment” value ([3]; Regimen 2, 6 mg continuous)?
Answer: The value was 5.3 (4.1 to 5.5) months.

Question: What about the “Progression-free survival rate at 12 months” value ([3]; Regimen 2, 6 mg continuous) of the same molecule?
Answer: The value was 11%.

Question: And the “Progression-free survival rate at 12 months” value ([3]; Regimen 3, 8 mg continuous)?
Answer: Its value is 19%.

Question: What about the median progression-free survival ([3]; Regimen 3, 8 mg continuous) of the same molecule?
Answer: Its median progression-free survival is 5.5 months.

Question: What about the “effect on serum phosphate level” value (serum phosphate) of the same molecule?
Answer: Its value is “increased serum phosphate level”.

Question: And the “6-month overall survival rate (95% CI)” value [4]?
Answer: The value was 0.80 (0.41, 0.95).

Reference: patent US12691112B2, “FGFR tyrosine kinase inhibitors for the treatment of urothelial carcinoma” (Janssen Pharmaceutica NV, priority 2019, dated 2026)
